Results published in EP4581948A1, “AEROSOLISABLE MATERIAL FOR USE IN AN ARTICLE” (BT DE Investments Inc., priority 2024, dated 2025).

Experiment: Solubility study: maximum solubility of terpenes in solvent by stepwise addition and visual inspection
Format: physicochemical
Settings: ambient temperature (18 to 22 degrees Celsius); for Max. solubility of terpenes in solvent (% w/w) BA: solvent benzyl alcohol (BA); for Max. solubility of terpenes in solvent (% w/w) PG: solvent propylene glycol (PG); for Max. solubility of terpenes in solvent (% w/w) PG + 8% BA: solvent propylene glycol with 8%w/w benzyl alcohol
Description: A solubility study was carried out to assess the solubility of a range of terpenes in propylene glycol (PG) and benzyl alcohol (BA), and a mixture of propylene glycol (PG) and 8%w/w benzyl alcohol (BA) (materials were sourced from Sigma).
In particular, the maximum solubility at ambient temperature was assessed following the stepwise addition of each terpene to the relevant solvent or solvent mixture. Each terpene was added in aliquots to a solvent (PG, BA or a combination of PG and BA, where the BA was present in an amount of 8%w/w of the PG) and stirred at ambient temperature (18 to 22 degrees Celsius) until the terpene had fully solubilized. The next aliquot of terpene was then added.

SMILES | Max. solubility of terpenes in solvent (% w/w) BA [% w/w] | Max. solubility of terpenes in solvent (% w/w) PG [% w/w] | Max. solubility of terpenes in solvent (% w/w) PG + 8% BA [% w/w]
C=CC(C)(CCC=C(C)C)OC(C)=O (stereo not drawn) [Linalyl acetate] | 34.5 | 1.4 | 6.0
C=C[C@](C)(O)CCC=C(C)C [R- linalool] | 73.2 | 72.6 | 74.3
C=C1CC/C=C(\C)CC[C@@H]2[C@@H]1CC2(C)C [beta-caryophyllene] | 11.0 | 1.1 | 2.4
CC(C)=CCCC(C)CCO (stereo not drawn) [beta-citronellol] | 71.2 | 47.0 | 70.3
